Experimental data: patent US20030105034A1, “Pyridine carboxy derivatives and an aminosugar” (Astion Deveopment A/S, priority 2001, published 2003)
“Also recorded” adds a separate entry of the source. Marks after values point to notes of the source that are not given here.

Legend:
[1] = tested on: tetradecanoyl phorbol acetate (TPA) induced ear inflammation; experiment: TPA induced ear inflammation test in the mouse, Compound 122 compared to its components (Example 241); format: in vivo; details: for Inhibition of ear swelling (%): versus vehicle group A, 3 h after TPA; for inhibition of ear swelling, result in words: Compound 122 7.0 mg, niacinamide 3.67 mg, N-acetylglucosamine 3.33 mg per application
Excerpt: (§1) The objective of this study is to assess the effect of Compound 122 as compared to its components in the tetradecanoyl phorbol acetate (TPA) induced ear inflammation test in the mouse, a commonly employed method for screening and evaluation of antiinflammatory drugs. Locoid® cutaneous solution (0.1% hydrocortisone 17-butyrate) is used as a positive control.
The test articles are the complex of the invention prepared according to example 118 (Compound 122 in the following) and its components niacinamide and N-acetylglucosamine, all obtained from Astion A/S, Denmark.
The study is performed in female SPF NMRI mice of the stock Bom:NMRI from M & B A/S, Denmark. At start of the acclimatisation period the mice is in the weight range of 18-20 g. An acclimatisation period of 7 days is allowed.
On day 0 the test substances are applied in 20 μl volumes to the inner surface of the right ear 20 minutes before and again 20 minutes after TPA treatment. All groups are treated with 20 μl acetone on the left ear and with 20 μl TPA, 400 μg/ml, on the right ear.
Three hours after the TPA application the mice are sacrificed, the ears cut off and weighed.
The amount of niacinamide and N-acetylglucosamine administered to groups C and D corresponds exactly to the amount of the two substances present in Compound 122 administered to group B.
(§2) Mean weights and standard deviations are calculated. Percent inhibition of the oedema compared with group A is calculated for the groups B-E. Weights of the left ears are used to assess the comparability of the groups and to calculate differences in weight between left and right ear.
Ear swelling is determined as the difference between the weight of right and left ear. The following inhibition of ear swelling is observed in groups B-E: […]

[2] = tested on: tetradecanoyl phorbol acetate (TPA) induced ear inflammation; experiment: TPA induced ear inflammation test in the mouse, two doses of two complexes (Example 239); format: in vivo; details: Locoid solution 0.1%, 0.02 mg per application; positive control; ears weighed 3 h after TPA
Excerpt: as §1, with “two doses of two chemical complexes of the invention topically administered” for “Compound 122 as compared to its components”
At start of the acclimatisation period the mice is in the weight range of 18-20 g. An acclimatisation period of 7 days is allowed.
On the day of arrival the animals is randomly allocated to 7 groups, each of 9 mice.
The test substances are applied in 20 μl volumes to the inner surface of the right ear on day 0. 20 minutes before and again 20 minutes after TPA treatment. All groups is treated with 20 μl acetone on the left ear and with 20 μl TPA, 400 μg/ml, on the right ear.
as §2, with “Three hours after the TPA application the mice are sacrificed, the ears cut off and weighed. Mean” for “Mean”, “group 1” for “group A”, “groups 2-7.” for “groups B-E.”, “ears is” for “ears are”

| Compound | Inhibition of ear swelling (%) ([1]; 3.33 mg per application, group D) | inhibition of ear swelling, result in words [1] | Inhibition of ear swelling (%) ([1]; 0.02 mg per application, group E, positive control) | inhibition of ear swelling [2] | Inhibition of ear swelling (%) ([1]; 3.67 mg per application, group C) |
| --- | --- | --- | --- | --- | --- |
| CC(=O)N[C@H]1C(O)O[C@H](CO)[C@@H](O)[C@@H]1O (stereo partly drawn) [N-acetylglucosamine] | 31* % | only displayed a modest inhibition; also recorded: showed much lesser inhibition of ear swelling |  |  |  |
| CCCC(=O)O[C@]1(C(=O)CO)CC[C@H]2[C@@H]3CCC4=CC(=O)CC[C@]4(C)[C@H]3[C@@H](O)C[C@@]21C [Hydrocortisone 17-butyrate, hydrocortisone 17-butyrate] |  |  | 89*** % | 90% |  |
| NC(=O)c1cccnc1 [Niacinamide] |  | only displayed a modest inhibition; also recorded: showed much lesser inhibition of ear swelling |  |  | 31** % |
